Source: article PMC11974063 (BMC Medicine, 2025)

Molecular target: Influenza HA2 protein
Type: binding

With `COCCOC(=O)C1=C(C)NC(C)=C(C(=O)OC/C=C/c2ccccc2)C1c1cccc([N+](=O)[O-])c1` (stereo not shown) [cilnidipine] as the compound, how does the Kd read?
The Kd was 32 nM.
